Like-named read-outs stand apart in the source and are kept apart here.
Columns and labels:
[1] = target: hCB1R (Homo sapiens, UniProt P21554); experiment: hCB1R binding (Kd hCB1R, Table 1)
[2] = target: T1, human CB2 receptor (hCB2R) (Homo sapiens, UniProt P34972); experiment: TR-FRET hCB2R binding assay
T1 construct: expressed in transfected cells; membranes

[3] = target: T2, CB2 receptor (hCB2R), CHO cell line stably overexpressing CB2 receptor (Homo sapiens, UniProt P34972); experiment: cAMP hCB2R functional assay (HTRF); assay type: cell-based; details: CHO cells overexpressing CB2 receptor, forskolin; for Functionality: normalized to Emax of CP55940 (100%); for EC50: means ± SEM of 2-3 independent experiments
T2 construct: expressed in transfected cells; host or cells: CHO cell line stably overexpressing CB2 receptor (G418 selection)
Procedure: cAMP hCB2R Functional Assay
The Homogeneous Time Resolved Fluorescence (HTRF) Assays
The homogeneous time-resolved fluorescence (HTRF) cAMP assay was conducted according to the manufacturer's protocol for the cAMP-Gs Dynamic kit (Cisbio). Briefly, the CHO cell line stably overexpressing CB2 receptor were maintained in Ham's F12 supplemented with 10% FBS, 100 U/ml penicillin and 100 μg/ml streptomycin (Gibco-ThermoFisher) and 400 μg/ml G418 (ThermoFisher). For CB2 compounds test, harvest the cells with Cell Dissociation Buffer and re-suspend the cells in F-12 K at 0.4*10^6 cells/mL, and dispense cells into 384-well low volume plates at 2000 cells/5 μL per well. The cells were stimulated with compounds diluted in Stimulation Buffer (2.5 μL/well) for 15 min at room temperature. And then followed by the addition of 2.5 μL 25 μM forsklin. After 15 mins incubation, reactions were stopped by 5 μL/well cAMP-d2 conjugate working solution followed by 5 μL/well of anti-cAMP cryptate working solution. After incubation for 1 h at room temperature, the plates were read in a PerkinElmer Envision reader for time-resolved fluorescence resonance energy transfer detection at 620 nm and 665 nm.
Quantification and Statistical Analysis
All HTRF ratio data sets of test compounds were normalized to the Emax of CP55940 (100%) and obtained the means±standard error of the mean (SEM) of 2-3 independent experiments performed in technical replicates.

[4] = TR-FRET, membranes of SNAP-tagged human CB2R HEK293-TR cells, 100 μM GppNHp, nonspecific binding with SR144528, read-out: Kd hCB2R

hCB1R, sequence (P21554 whole entry): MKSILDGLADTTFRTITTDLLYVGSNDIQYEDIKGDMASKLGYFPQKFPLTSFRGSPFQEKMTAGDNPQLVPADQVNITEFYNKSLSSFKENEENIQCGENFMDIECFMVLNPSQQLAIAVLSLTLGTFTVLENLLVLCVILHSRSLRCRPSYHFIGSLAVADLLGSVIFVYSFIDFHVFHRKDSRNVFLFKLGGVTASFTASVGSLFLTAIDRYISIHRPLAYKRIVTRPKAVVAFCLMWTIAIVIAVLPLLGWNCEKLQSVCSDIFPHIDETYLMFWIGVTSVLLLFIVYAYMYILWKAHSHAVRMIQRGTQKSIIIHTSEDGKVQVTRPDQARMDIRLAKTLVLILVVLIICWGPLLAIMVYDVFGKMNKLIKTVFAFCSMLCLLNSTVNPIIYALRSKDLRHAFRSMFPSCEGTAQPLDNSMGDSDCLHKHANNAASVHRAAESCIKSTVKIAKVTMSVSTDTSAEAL
T1 sequence (P34972 whole entry): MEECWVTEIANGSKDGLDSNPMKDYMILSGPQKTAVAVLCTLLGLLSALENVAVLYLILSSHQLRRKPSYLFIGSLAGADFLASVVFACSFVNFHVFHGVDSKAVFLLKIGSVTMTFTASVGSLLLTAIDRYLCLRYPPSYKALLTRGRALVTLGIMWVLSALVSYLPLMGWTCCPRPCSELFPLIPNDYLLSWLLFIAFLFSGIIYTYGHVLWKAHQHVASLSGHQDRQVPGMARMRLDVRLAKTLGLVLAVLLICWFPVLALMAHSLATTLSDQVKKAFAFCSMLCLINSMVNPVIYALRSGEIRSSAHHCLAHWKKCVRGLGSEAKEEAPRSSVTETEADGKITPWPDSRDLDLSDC
T2 sequence (P34972 whole entry): as above

SMILES | Kd [1] | Kd [2, 4] | Functionality [3] | EC50 [3] | Kd [2]
CCCCC[C@@H](CC)C(C)(C)c1cc(OC)c([C@H]2C=C(CO)[C@H]3C[C@@H]2C3(C)C)c(OC)c1 (single isomer, unassigned) [Example 4] | 2190 nM | 0.97 nM | antagonist | – | –
CCCCC[C@@H](C(F)(F)F)C(C)(C)c1cc(OC)c([C@H]2C=C(CO)[C@H]3C[C@@H]2C3(C)C)c(OC)c1 [Example 1, ((1S,4S,5S)-4-(2,6-dimethoxy-4-((R)-2-methyl-3-(trifluoromethyl)octan-2-yl)phenyl)-6,6-dimethylbicyclo[3.1.1]hept-2-en-2-yl)methanol] | 11800 nM | 606 nM | antagonist | – | –
COc1cc(C(C)(C)[C@@H](CCCCCN=[N+]=[N-])c2ccccc2)cc(OC)c1[C@H]1C=C(CN)[C@H]2C[C@@H]1C2(C)C [Example 14, ((1S,4S,5S)-4-(4-((S)-8-azido-2-methyl-3-phenyloctan-2-yl)-2,6-dimethoxyphenyl)-6,6-dimethylbicyclo[3.1.1]hept-2-en-2-yl)methanamine] | – | 476 nM | inverse agonist | 2690 nM | –
COc1cc(C(C)(C)[C@H](CCCCCN=[N+]=[N-])c2ccccc2)cc(OC)c1[C@H]1C=C(CN)[C@H]2C[C@@H]1C2(C)C [Example 15, ((1S,4S,5S)-4-(4-((R)-8-azido-2-methyl-3-phenyloctan-2-yl)-2,6-dimethoxyphenyl)-6,6-dimethylbicyclo[3.1.1]hept-2-en-2-yl)methanamine] | – | 39.1 nM | inverse agonist | 112 nM | –
CCCCCC(c1ccccc1)C(C)(C)c1cc(OC)c([C@H]2C=C(CNC(=O)CCCCC[n+]3cc(S(=O)(=O)[O-])ccc3/C=C/c3cc4ccc(N(CC)CC)cc4oc3=O)[C@H]3C[C@@H]2C3(C)C)c(OC)c1 (stereo partly drawn) [Example 16, 6-((E)-2-(7-(diethylamino)-2-oxo-2H-chromen-3-yl)vinyl)-1-(6-((((1S,4S,5S)-4-(2,6-dimethoxy-4-(2-methyl-3-phenyloctan-2-yl)phenyl)-6,6-dimethylbicyclo[3.1.1]hept-2-en-2-yl)methyl)amino)-6-oxohexyl)pyridin-1-ium-3-sulfonate] | – | 214 nM | – | – | –
C#CCCC(=O)NCC1=C[C@H](c2c(OC)cc(C(C)(C)[C@@H](CCCCCN=[N+]=[N-])c3ccccc3)cc2OC)[C@@H]2C[C@H]1C2(C)C [Example 18, N-(((1S,4S,5S)-4-(4-((S)-8-azido-2-methyl-3-phenyloctan-2-yl)-2,6-dimethoxyphenyl)-6,6-dimethylbicyclo[3.1.1]hept-2-en-2-yl)methyl)pent-4-ynamide] | – | 2.1 nM | inverse agonist | 40.7 nM | –
C#CCCC(=O)NCC1=C[C@H](c2c(OC)cc(C(C)(C)[C@H](CCCCCN=[N+]=[N-])c3ccccc3)cc2OC)[C@@H]2C[C@H]1C2(C)C [Example 19, N-(((1S,4S,5S)-4-(4-((R)-8-azido-2-methyl-3-phenyloctan-2-yl)-2,6-dimethoxyphenyl)-6,6-dimethylbicyclo[3.1.1]hept-2-en-2-yl)methyl)pent-4-ynamide] | – | 0.42 nM | inverse agonist | 33.1 nM | –
CCN(CC)c1ccc2cc(/C=C/c3ccc(S(=O)(=O)[O-])c[n+]3CCCCCC(=O)NCC3=C[C@H](c4c(OC)cc(C(C)(C)C(CCCCCN=[N+]=[N-])c5ccccc5)cc4OC)[C@@H]4C[C@H]3C4(C)C)c(=O)oc2c1 (stereo partly drawn) [Example 20, 1-(6-((((1S,4S,5S)-4-(4-(8-azido-2-methyl-3-phenyloctan-2-yl)-2,6-dimethoxyphenyl)-6,6-dimethylbicyclo[3.1.1]hept-2-en-2-yl)methyl)amino)-6-oxohexyl)-6-((E)-2-(7-(diethylamino)-2-oxo-2H-chromen-3-yl)vinyl)pyridin-1-ium-3-sulfonate] | – | 67.9 nM | – | – | –
CCN(CC)c1ccc2cc(/C=C/c3ccc(S(=O)(=O)[O-])c[n+]3CCCCCC(=O)NCC3=C[C@H](c4c(OC)cc(C(C)(C)[C@@H](CCCCCN=[N+]=[N-])c5ccccc5)cc4OC)[C@@H]4C[C@H]3C4(C)C)c(=O)oc2c1 [Example 21, 1-(6-((((1S,4S,5S)-4-(4-((S)-8-azido-2-methyl-3-phenyloctan-2-yl)-2,6-dimethoxyphenyl)-6,6-dimethylbicyclo[3.1.1]hept-2-en-2-yl)methyl)amino)-6-oxohexyl)-6-((E)-2-(7-(diethylamino)-2-oxo-2H-chromen-3-yl)vinyl)pyridin-1-ium-3-sulfonate] | – | 162 nM | inverse agonist | 339 nM | –
COc1cc(C(C)(C)[C@@H](CCCCCN=[N+]=[N-])c2ccccc2)cc(OC)c1[C@H]1C=C(CNC(=O)CCCCCCNc2ccc([N+](=O)[O-])c3nonc23)[C@H]2C[C@@H]1C2(C)C [Example 23, N-(((1S,4S,5S)-4-(4-((S)-8-azido-2-methyl-3-phenyloctan-2-yl)-2,6-dimethoxyphenyl)-6,6-dimethylbicyclo[3.1.1]hept-2-en-2-yl)methyl)-7-((7-nitrobenzo [c][1,2,5]oxadiazol-4-yl)amino)heptanamide] | – | 158 nM | Antagonist | – | –
COc1cc(C(C)(C)[C@H](CCCCCN=[N+]=[N-])c2ccccc2)cc(OC)c1[C@H]1C=C(CNC(=O)CCCCCNC(=O)c2ccc3c(c2)C(=O)OC32c3ccc(N(C)C)cc3Oc3cc(N(C)C)ccc32)[C@H]2C[C@@H]1C2(C)C [Example 25, N-(6-((((1S,4S,5S)-4-(4-((R)-8-azido-2-methyl-3-phenyloctan-2-yl)-2,6-dimethoxyphenyl)-6,6-dimethylbicyclo[3.1.1]hept-2-en-2-yl)methyl)amino)-6-oxohexyl)-3′,6′-bis(dimethylamino)-3-oxo-3H-spiro[isobenzofuran-1,9′-xanthene]-5-carboxamide] | 396 nM | 2.78 nM | – | – | –
COc1cc(C(C)(C)[C@H](CCCCCN=[N+]=[N-])c2ccccc2)cc(OC)c1[C@H]1C=C(CNC(=O)CCCCCNC(=O)c2ccc3c(c2)C2(OC3=O)c3ccc(O)cc3Oc3cc(O)ccc32)[C@H]2C[C@@H]1C2(C)C [Example 26, N-(6-((((1S,4S,5S)-4-(4-((R)-8-azido-2-methyl-3-phenyloctan-2-yl)-2,6-dimethoxyphenyl)-6,6-dimethylbicyclo[3.1.1]hept-2-en-2-yl)methyl)amino)-6-oxohexyl)-3′,6′-dihydroxy-3-oxo-3H-spiro[isobenzofuran-1,9′-xanthene]-6-carboxamide] | 1280 nM | 30.3 nM | – | – | –
COc1cc(C(C)(C)[C@H](CCCCCN=[N+]=[N-])c2ccccc2)cc(OC)c1[C@H]1C=C(CNC(=O)CCCCCNC(=O)CCCCC[N+]2=C(/C=C/C=C/C=C3/N(CCCS(=O)(=O)O)c4ccc(S(=O)(=O)O)cc4C3(C)C)C(C)(CCCCS(=O)(=O)O)c3cc(S(=O)(=O)[O-])ccc32)[C@H]2C[C@@H]1C2(C)C (stereo partly drawn) [Example 27, 1-(6-((6-((((1S,4S,5S)-4-(4-((R)-8-azido-2-methyl-3-phenyloctan-2-yl)-2,6-dimethoxyphenyl)-6,6-dimethylbicyclo[3.1.1]hept-2-en-2-yl)methyl)amino)-6-oxohexyl)amino)-6-oxohexyl)-2-((1E,3E)-5-((E)-3,3-dimethyl-5-sulfo-1-(3-sulfopropyl)indolin-2-ylidene)penta-1,3-dien-1-yl)-3-methyl-3-(4-sulfobutyl)-3H-indol-1-ium-5-sulfonate] | 7050 nM | 25.9 nM | – | – | –
COc1cc(C(C)(C)[C@H](CCCCCN=[N+]=[N-])c2ccccc2)cc(OC)c1[C@H]1C=C(CNC(=O)CCCCCNC(=O)CCc2ccc3n2[B-](F)(F)[N+]2=C(c4ccc[nH]4)C=CC2=C3)[C@H]2C[C@@H]1C2(C)C [Example 28, N-(((1S,4S,5S)-4-(4-((R)-8-azido-2-methyl-3-phenyloctan-2-yl)-2,6-dimethoxyphenyl)-6,6-dimethylbicyclo[3.1.1]hept-2-en-2-yl)methyl)-6-(3-(5,5-difluoro-7-(1H-pyrrol-2-yl)-5H-514,614-dipyrrolo[1,2-c:2′,1′-f][1,3,2]diazaborinin-3-yl)propanamido)hexanamide] | – | – | – | – | 44.7 nM
COc1cc(C(C)(C)[C@H](CCCCCN=[N+]=[N-])c2ccccc2)cc(OC)c1[C@H]1C=C(CNC(=O)CCCCCNC(=O)c2ccc3c(c2)C(=O)OC32c3ccc(N)c(S(=O)(=O)O)c3Oc3c2ccc(N)c3S(=O)(=O)O)[C@H]2C[C@@H]1C2(C)C [Example 29, 3′,6′-diamino-5-((6-((((1S,4S,5S)-4-(4-((R)-8-azido-2-methyl-3-phenyloctan-2-yl)-2,6-dimethoxyphenyl)-6,6-dimethylbicyclo[3.1.1]hept-2-en-2-yl)methyl)amino)-6-oxohexyl)carbamoyl)-3-oxo-3H-spiro[isobenzofuran-1,9′-xanthene]-4′,5′-disulfonic acid] | 3300 nM | 24.9 nM | – | – | –
